Results published in ChEMBL document CHEMBL1201862, “PubChem BioAssay data set” (2004).
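Exposure lasted 48 hours, with cells grown in 96-well plates and compounds tested at five concentrations. GI50 marks 50% less growth.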 Activity calls are given as the source filed them. Rule as the data show it: active = GI50 up to about 1.1 µM and inactive = higher. Starred links: 1 amine or outer side, 2 acyl side, 3 side chain; linkers in the order of their positions; H or OH if unused. Non-standard residues stand in square brackets, D forms with d. Residues, ends and D or L forms follow the SMILES beside them. ξ: configuration not given here. Ile(3ξ) = CCC(C)[C@H](N)C(=O)O; X35 = C=CCC(O[*:1])C(=O)[*:2]; NMeV = CN[C@H](C(=O)O)C(C)C; NMeA = CN[C@@H](C)C(=O)O; βAla = NCCC(=O)O

Legend:
Assay in all cases: NCI anticancer screen, dose series, 48 h
786-0 = tested on: 786-0
A549 = tested on: A549
HT-29 = tested on: HT-29
IGROV-1 = tested on: IGROV-1
KM12 = tested on: KM12
LOX IMVI = tested on: LOX IMVI
NCI-H226 = tested on: NCI-H226
NCI-H460 = tested on: NCI-H460
OVCAR-4 = tested on: OVCAR-4
SK-MEL-5 = tested on: SK-MEL-5
SNB-19 = tested on: SNB-19
SR = tested on: SR
SW-620 = tested on: SW-620
UACC-62 = tested on: UACC-62
MCF7 = tested on: MCF7
MDA-MB-231 = tested on: MDA-MB-231
MDA-N = tested on: MDA-N
PC-3 = tested on: PC-3

Measured: GI50

CS(=O)(=O)Sc1ccc(Cl)cc1
inactive: 786-0 6.32 µM | A549 3.75 µM | HT-29 9.75 µM | IGROV-1 2.85 µM | KM12 7.19 µM | LOX IMVI 3.36 µM | NCI-H226 7.48 µM | NCI-H460 10.9 µM | OVCAR-4 13.7 µM | SK-MEL-5 7.83 µM | SNB-19 3.4 µM | SR 3.59 µM | SW-620 12.7 µM

C=CCC1OC(=O)CCNC(=O)[C@H](C)N(C)C(=O)[C@H](C(C)C)N(C)C(=O)[C@H](C(C)CC)NC(=O)[C@@H]2CCCN2C1=O (stereo not given in full) (cyclo([Ile(3ξ)][NMeV][NMeA][βAla][X35]P))
inactive: 786-0 5.58 µM | A549 9.08 µM | HT-29 2.99 µM | IGROV-1 33.6 µM | KM12 8.43 µM | LOX IMVI 9.16 µM | NCI-H226 7.55 µM | NCI-H460 4.94 µM | OVCAR-4 6.75 µM | SK-MEL-5 2.97 µM | SNB-19 > 39.4 µM | SR 4.95 µM | SW-620 5.07 µM | UACC-62 4.08 µM

O=C1CCC(c2nc3ccccc3o2)C(=O)N1 (stereo not given)
inactive: 786-0 > 100 µM | A549 > 100 µM | HT-29 > 100 µM | IGROV-1 > 100 µM | KM12 > 100 µM | LOX IMVI > 100 µM | NCI-H226 > 100 µM | NCI-H460 > 100 µM | OVCAR-4 > 100 µM | SK-MEL-5 > 100 µM | SNB-19 > 100 µM | SR > 100 µM | SW-620 > 100 µM | UACC-62 > 100 µM

Cc1ccc(NC(=O)C(=O)CC(=O)c2c(C)[n+]([O-])c3ccccc3[n+]2[O-])cc1
inactive: 786-0 40.6 µM | A549 31 µM | HT-29 33.6 µM | IGROV-1 22 µM | KM12 29.2 µM | LOX IMVI 20 µM | NCI-H226 > 100 µM | NCI-H460 27.9 µM | OVCAR-4 22.6 µM | SK-MEL-5 26.8 µM | SNB-19 54.1 µM | SR 20.5 µM | SW-620 33.7 µM | UACC-62 17.7 µM

C/C(=N\NS(=O)(=O)c1ccc(C)cc1)C(CN1CCCCC1)C(c1ccccc1)c1c(O)c2ccccc2oc1=O (stereo not given)
inactive: 786-0 > 100 µM | A549 > 100 µM | HT-29 > 100 µM | IGROV-1 > 100 µM | KM12 > 100 µM | LOX IMVI > 100 µM | NCI-H226 > 100 µM | NCI-H460 > 100 µM | OVCAR-4 > 100 µM | SK-MEL-5 > 100 µM | SNB-19 > 100 µM | SR 57 µM | SW-620 70.6 µM | UACC-62 > 100 µM

CC(C)NC1CCCCC2c3ccccc3C12O (stereo not given)
inactive: 786-0 > 100 µM | A549 > 100 µM | HT-29 > 100 µM | KM12 > 100 µM | LOX IMVI > 100 µM | NCI-H226 > 100 µM | NCI-H460 > 100 µM | OVCAR-4 > 100 µM | SK-MEL-5 > 100 µM | SNB-19 > 100 µM | SR > 100 µM | SW-620 > 100 µM | UACC-62 > 100 µM

O=C1[C@H]2ON(c3ccccc3)C(c3cccc([N+](=O)[O-])c3)[C@H]2C(=O)N1c1ccc(Cc2ccc(N3C(=O)[C@@H]4ON(c5ccccc5)C(c5cccc([N+](=O)[O-])c5)[C@@H]4C3=O)cc2)cc1 (stereo not given in full)
inactive: 786-0 > 100 µM | A549 > 100 µM | HT-29 > 100 µM | IGROV-1 > 100 µM | KM12 > 100 µM | LOX IMVI > 100 µM | NCI-H226 > 100 µM | NCI-H460 > 100 µM | OVCAR-4 > 100 µM | SK-MEL-5 43.9 µM | SNB-19 > 100 µM | SR > 100 µM | SW-620 > 100 µM | UACC-62 47.4 µM

CN(C)c1nc(Oc2nc(N(C)C)nc(N(C)C)n2)nc(N(C)C)n1
inactive: 786-0 > 100 µM | A549 67 µM | HT-29 > 100 µM | IGROV-1 > 100 µM | KM12 62.5 µM | LOX IMVI > 100 µM | NCI-H226 > 100 µM | NCI-H460 > 100 µM | OVCAR-4 > 100 µM | SK-MEL-5 > 100 µM | SNB-19 > 100 µM | SR > 100 µM | SW-620 > 100 µM | UACC-62 > 100 µM

CCCCCCCCCCCc1c(O)c(=O)c2c(oc3c(=O)c(CCCCCCCCCCC)c(O)c(=O)c3n2-c2ccc(N(C)C)cc2)c1=O
inactive: 786-0 17.5 µM | A549 23.6 µM | HT-29 23.1 µM | IGROV-1 24.3 µM | KM12 12.9 µM | LOX IMVI 24.2 µM | NCI-H226 19.3 µM | NCI-H460 18.6 µM | OVCAR-4 16.5 µM | SK-MEL-5 18.7 µM | SNB-19 20.8 µM | SR 65.2 µM | SW-620 24 µM | UACC-62 18 µM

Clc1ccc(/N=N/c2nc3ccccc3nc2/N=N/c2ccc(Cl)cc2Cl)c(Cl)c1
inactive: 786-0 85.5 µM | A549 > 100 µM | HT-29 > 100 µM | IGROV-1 > 100 µM | KM12 > 100 µM | LOX IMVI > 100 µM | NCI-H226 > 100 µM | NCI-H460 > 100 µM | OVCAR-4 > 100 µM | SNB-19 65.8 µM | SR 33.5 µM | SW-620 > 100 µM

C/C(=N\NC(=O)CC#N)c1c(O)cc(C)oc1=O
inactive: 786-0 > 100 µM | A549 > 100 µM | HT-29 > 100 µM | IGROV-1 > 100 µM | KM12 > 100 µM | LOX IMVI > 100 µM | NCI-H226 > 100 µM | NCI-H460 > 100 µM | OVCAR-4 > 100 µM | SK-MEL-5 > 100 µM | SNB-19 > 100 µM | SR > 100 µM | SW-620 > 100 µM | UACC-62 > 100 µM

NCc1cc(O)c(O)c(O)c1
inactive: 786-0 > 100 µM | A549 > 100 µM | HT-29 > 100 µM | IGROV-1 > 100 µM | KM12 > 100 µM | LOX IMVI 34.8 µM | NCI-H226 > 100 µM | NCI-H460 > 100 µM | OVCAR-4 > 100 µM | SK-MEL-5 > 100 µM | SNB-19 > 100 µM | SR 91.2 µM | SW-620 > 100 µM | UACC-62 59.3 µM

CCOC(=O)CCCc1cc(O)c2c(C)c3[nH]c4ccc(Cl)cc4c3c(C)c2n1
inactive: 786-0 20.4 µM | A549 19.6 µM | HT-29 23.7 µM | IGROV-1 30.2 µM | KM12 37.2 µM | LOX IMVI 38.7 µM | MCF7 15.9 µM | MDA-MB-231 23.9 µM | MDA-N 34.9 µM | NCI-H226 19.1 µM | NCI-H460 16.5 µM | OVCAR-4 23.7 µM | PC-3 28.8 µM | SK-MEL-5 19.8 µM | SNB-19 23.7 µM | SR 44.4 µM | SW-620 32.2 µM

Nc1nc(SCC(=O)c2ccccc2)c2[nH]cnc2n1
inactive: 786-0 > 100 µM | A549 > 100 µM | HT-29 > 100 µM | IGROV-1 > 100 µM | KM12 > 100 µM | LOX IMVI > 100 µM | NCI-H226 > 100 µM | NCI-H460 > 100 µM | OVCAR-4 > 100 µM | SK-MEL-5 > 100 µM | SNB-19 > 100 µM | SR > 100 µM | SW-620 > 100 µM | UACC-62 > 100 µM
